Laboratory results as given in BindingDB's records for doi:10.1016/s0006-291x(02)03054-1 (Pharmacia, 2003).

Molecular target: FMRFamide-like neuropeptides 14 (Ascaris)

Ki: 10.5 nM
Compound: Nc1nc2c(ncn2C2OC(COP(=O)(O)OP(=O)(O)OP(=O)(O)O)C(O)C2O)c(=O)[nH]1 (stereo unspecified) [CAS_6830]
